Here are results for eight molecules from patent US20100129515A1, “FLAVOUR MODULATING SUBSTANCES” (QUEST INTERNATIONAL SERVICES B.V., priority 2005, published 2010).

A short description of experiment [1]: Taste of solutions in water (Example 7). Type of experiment: in vivo.
For experiment [2] the following is noted: cited from earlier work; for taste: as a dry powder and as an alcoholic or aqueous solution; for pungency: compared with capsaicin.
Experiment [3] can be described thus: Tasting of 0.6% sodium chloride / 0.03% mono sodium glutamate solution by trained flavourist panel (Example 3). Format: in vivo. The note with it: 10 ppm in 0.6% sodium chloride, compared with solution A without substance. As for the experimental part: 2 solutions were prepared containing respectively:
0.03% mono sodium glutamate
10 ppm N-vanillyl urea as described in example 1
Both solutions were tasted by a trained flavourist panel, which described the solutions as follows: […]

Experiment [4] is described as follows: Tasting of 10 ppm menthol solution by trained flavourist panel (Example 4). Format: in vivo. The note with it: 1 ppm added to 10 ppm menthol solution; compared to the base. Here is the method: 1 ppm N-vanillyl urea as described in example 1 was added to a 10 ppm menthol solution and compared to the base. Both solutions were tasted by a trained flavourist panel, which described the solutions as follows: […]

Experiment [5] in a line: Tasting of 5% (w/w) ethanol solutions by trained flavourist panel (Example 2). Format: in vivo. The note with it: reference 5% (w/w) alcoholic solution. Here is the method: The solid product obtained in example 1 was dissolved in ethanol/water (1:1, w/w) to prepare a 1000 ppm stock solution.
The following 3 alcoholic solutions are prepared: A: 1 ppm N-vanillyl urea as obtained in example 1
B: 10 ppm N-vanillyl urea as obtained in example 1
C: 100 ppm N-vanillyl urea as obtained in example 1
All solutions were tasted by a trained flavourist panel and compared to a 5% (w/w) alcoholic solution (the reference).

The nature of experiment [6]: Tasting of 0.6% NaCl / 0.03% MSG solutions by professional panel (Examples 9 and 10). Type of experiment: in vivo. As for the experimental part:
Three solutions of 0.6% NaCl and 0.03% MSG were prepared.
To a first solution (sample A), 0.1 ppm N-vanillyl-N′-octyl urea was added To a second solution (sample B) 0.2 ppm N-vanillyl-N′-octyl thiourea was added.
(§1) Samples A and B and the reference sample were tasted by a professional panel.
To a first solution (sample A), 5 ppm N-vanillyl-N′-octyl urea was added To a second solution (sample B), 10 ppm N-vanillyl-N′-octyl thiourea was added.

A short description of experiment [7]: Tasting of fondant with 2500 ppm menthol by professional panel (Example 8). Format: in vivo. Here is the method: Three samples of fondant were prepared by mixing 65% Fondacreme (ex Belgosuc NV Belgium) with 35% sugar syrup (67° Brix). 2500 Ppm menthol was added as a 50% solution in propylene glycol.
To a first sample (sample A), 0.1 ppm N-vanillyl-N′-octyl urea was added To a second sample (sample B), 0.2 ppm N-vanillyl-N′-octyl thiourea was added. Samples A, B and the reference sample were tasted by a professional panel. […] The cooling was perceived more through the whole oral cavity.

A short description of experiment [8]: Tasting of 0.6% NaCl / 0.03% MSG / 4 ppm pepper oleoresin solutions by professional panel (Example 11). Format: in vivo. As for the experimental part:
Three solutions of 0.6% NaCl and 0.03% MSG and 4 ppm pepper oleoresin (ex Warner Jenkinson, St Louis, USA) were prepared.
To a first solution (sample A), 1 ppm N-vanillyl-N′-octyl urea was added To a second solution (sample B), 2 ppm N-vanillyl-N′-octyl thiourea was added.
as §1

Experiment [9] can be described thus: Tasting of toothpaste by professional panel (Example 13). Format: in vivo. As for the experimental part: 97 g of a toothpaste base was prepared as follows: 13.8 ml demineralised water, 0.1 g trisodium phosphate (12H2O) and 0.8 g sodium monofluorophosphate were weighed and mixed until clear. 50.0 g of sorbitol was added and the blend was mixed again. The obtained mixture was placed in a Fryma pot. A poly bag was placed in a suitable container and 8.0 g of precipitated silica AC30, 9.0 g of precipitated silica TC15, 0.8 g of sodium carboxymethylcellulose (SCMC 9M31XF) and 1.0 g of a colorant (Tiona (1700)) were weighed and placed in the bag in the order listed. The top of the bag was secured with a tag and the contents were thoroughly mixed to distribute the gum throughout the mixture.
This mixture was added to the Fryma pot. Then 7.0 ml of demineralised water, 1.5 g of sodium lauryl sulphate (Empicol LXV100C) and 5.0 g of PEG 1500 were placed in a beaker and heated to 45° C. and mixed with a Turrax to disperse the ingredients. The dispersion was placed on a magnetic stirrer until clear (while covered with cling film) and was subsequently added to the Fryma pot.
To this base toothpaste 0.8 g of a 25% saccharin soln was added. Part of the base toothpaste was then intensively mixed with N-vanillyl-N′-octyl urea (as obtained in Example 4) to obtain a 0.1 ppm concentration of N-vanillyl-N′-octyl urea (sample A). […]

`COc1cc(CNC(N)=S)ccc1O` [N-vanillyl thiourea]: in experiment [1] (25 ppm in water), the “taste of solution in water” value is “tingling, burning and slightly bitter taste and a weak vanillin-like flavour sensation”. Also, in [2], the taste result is “tasteless”.

Consider `COc1cc(CNC(N)=O)ccc1O` [N-vanillyl urea], for which the taste description entry in experiment [3] is “more salty, umami, warm, bite, preferred to A”; in experiment [4], “powerful and full cooling sensation, preferred to the base”. The “taste compared to the reference” value in experiment [5] (1 ppm in 5% (w/w) ethanol) was “more alcohol-like bite than the reference”; in experiment [5] (10 ppm in 5% (w/w) ethanol), “stronger hot, sharp and pungent, ethanol-like taste compared to the reference solution”; in [5] (100 ppm in 5% (w/w) ethanol), “stronger hot, sharp and pungent, ethanol-like taste compared to the reference solution”. Besides, the “taste of solution in water” value in experiment [1] (50 ppm in water) was “slightly tingling taste and a weak vanillin-like flavour sensation”. The taste entry in [2] is recorded as “tasteless”.

Take `CCCCCCCCNC(=S)NCc1ccc(O)c(OC)c1` [N-vanillyl-N′-octyl thiourea]: in experiment [6] (0.2 ppm in 0.6% NaCl, relative to sample A), the “salt effects compared to the reference sample” value was “the same effects but slightly weaker”. In addition, the “salt and hotness effects compared to the reference sample” value in experiment [6] (10 ppm in 0.6% NaCl, relative to sample A) is “the same effects but slightly weaker”. The “cooling effect compared to the reference sample” value in experiment [7] (0.2 ppm in fondant with 2500 ppm menthol, relative to sample A) is “the same effects but slightly weaker”. Moreover, the “hotness and overall impression compared to the reference sample” value in experiment [8] (2 ppm in 0.6% NaCl, relative to sample A) was “the same effects but slightly weaker”.

As for `CCCCCCCCNC(=O)NCc1ccc(O)c(OC)c1` [N-vanillyl-N′-octyl urea, N-octyl-N′-vanillyl urea], the “cooling effect compared with the base toothpaste” value in experiment [9] (0.1 ppm in toothpaste) is “more aggressive cooling and more cooling volume in the oral cavity than the base”. Further, in experiment [6] (0.1 ppm in 0.6% NaCl), the “onset of salt impression compared to the reference” value is given as “came faster than in the reference” and the “saltiness compared to the reference sample” value is “more salty compared to the reference sample”. For the same molecule, in experiment [6] (5 ppm in 0.6% NaCl), the duration of hotness entry was “up to 10 minutes”; the “onset of salt impression compared to the reference sample” value is on record as “came faster than in the reference sample”; the “saltiness and hotness compared to the reference sample” value is “more salty and had a ‘clean’ and long lasting (up to 10 minutes) hotness compared to the reference sample”. For the same molecule, the “cooling effect compared to the reference sample” value in experiment [7] (0.1 ppm in fondant with 2500 ppm menthol) was “more intense and long-lasting cooling effect compared to the reference sample”. In addition, the “hotness and overall impression compared to the reference sample” value in experiment [8] (1 ppm in 0.6% NaCl) was “clearly more hot than the reference sample and the overall impression is much stronger”. Also, the “taste of solution in water” value in [1] (1 ppm in water) is “strong tingling and burning taste”.

Regarding `CCNC(=O)C1CC(C)CCC1C(C)C` (stereo not drawn) [WS-3, reference compound], in [9] (10 ppm in toothpaste), the “cooling effect compared with the base toothpaste” value was “in between sample A and the base in cooling strength”.

On to `COc1cc(CNC(=S)Nc2ccc(C)cc2)ccc1O` [p-tolylvanillyithiourea], for which, in [2], the pungency result is on record as “property of pungency but to a lesser degree than capsaicin”.

Consider o-tolylvanillylthiourea, for which, in experiment [2], the pungency entry is “property of pungency but to a lesser degree than capsaicin”.

Turning to phenylvanillylthiourea, in experiment [2], the taste entry is given as “tasteless” and the pungency entry was “property of pungency but to a lesser degree than capsaicin”.
